Experiments:
[1] = Stability study of Sorafenib hemi-tosylate monohydrate under four humidity/temperature conditions, XRPD; assay type: physicochemical
Method: Four different humidity/temperature conditions were selected for this study: • Humidity (60% RH) at room temperature, • High humidity (94% RH) at room temperature, • Accelerated conditions of ICH guidelines (40° C.-70% RH), • 80° C. under vacuum.
Karl-Fischer and DSC/TGA analyses confirmed that Sorafenib hemi-tosylate is a monohydrate (water content 3.9% for KF and 2.7% for TGA—3.1% calc. for a monohydrate). This form was previously characterized in WO2009/092070 but, as Karl-Fischer and TGA were not performed, the presence of water in this crystalline form was not mentioned. […] However, at 80° C. under vacuum, traces of SORAFENIB free base were detected after almost three months.

[2] = Stability studies of Sorafenib tosylate form III (humidity/temperature storage); assay type: physicochemical; settings: form III obtained from methanol solvate
Method: Stability studies of the free Sorafenib tosylate form III were already performed. These studies indicate that form III remained stable 3 months under accelerated conditions of ICH guideline (40° C.-70% RH) and less than 7 months at RT under 94% RH, while it remained stable at least 7 month at RT under 60% RH.
As the stability study of Sorafenib tosylate form III was performed with Sorafenib tosylate form III obtained from Sorafenib tosylate methanol solvate, only a minor difference in behavior could be possible with this new solid.

| Structure (SMILES) | time remained stable ([1]; 60% RH at room temperature) | time remained stable ([1]; 70% RH at 40° C.) | time remained stable ([1]; 94% RH at room temperature) | crystalline changes by XRPD ([1]; after 88 days at 80° C. under vacuum) | crystalline changes by XRPD ([1]; after 119 days at 60% RH at room temperature) | crystalline changes by XRPD ([1]; after 119 days at 70% RH at 40° C.) | crystalline changes by XRPD ([1]; after 119 days at 94% RH at room temperature) | time form III remained stable ([2]; RT under 60% RH) | time form III remained stable ([2]; RT under 94% RH) | time form III remained stable ([2]; accelerated conditions of ICH guideline (40° C.-70% RH)) [months] |
| --- | --- | --- | --- | --- | --- | --- | --- | --- | --- | --- |
| CNC(=O)c1cc(Oc2ccc(NC(=O)Nc3ccc(Cl)c(C(F)(F)F)c3)cc2)ccn1.Cc1ccc(S(=O)(=O)O)cc1 [Sorafenib hemi-tosylate] | at least four | at least four | at least four | traces of Sorafenib free base were observed | No crystalline changes were detected | No crystalline changes were detected | No crystalline changes were detected |  |  |  |
| CNC(=O)c1cc(Oc2ccc(NC(=O)Nc3ccc(Cl)c(C(F)(F)F)c3)cc2)ccn1.Cc1ccc(S(=O)(=O)O)cc1 [Sorafenib tosylate form III, 4-[4-({[4-chloro-3-(trifluoromethyl)phenyl]carbamoyl}amino)phenoxy]-N-methylpyridine-2-carboxamide 4-methylbenzenesulfonate (1:1)] |  |  |  |  |  |  |  | at least 7 month | less than 7 months | 3 |

Source: patent publication US9738607B2, “Scalable process for the preparation of Sorafenib tosylate ethanol solvate and Sorafenib tosylate form III” (F.I.S.—FABBRICA ITALIANA SINTETICI S.P.A, priority 2015, dated 2017)
